Usually GI50 stands for the concentration that inhibits growth by half. What is called TGI is the concentration at which net growth stops.

Values joined by “and” are separate entries in the source; they are usually repeats but may differ in a detail not shown here. Identical values can stand only once.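 Dose response: 5 concentrations. Exposure: 48 h. Format: 96-well plates. Endpoint: linear interpolation; highest concentration if not reached. GI50 marks 50% less growth. TGI marks complete inhibition of growth.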

Results on 8 compounds are retold here after PubChem BioAssay (NCI).

Test systems include A498 renal; DU-145 prostate; HT29 colon; IGROV1 ovarian; RXF 393 renal; SK-MEL-2 melanoma; SK-MEL-5 melanoma; SN12C renal; SNB-19 CNS; U251 CNS.
What all share (assay): DTP human tumour cell line panel, 48 h

As to `O=C(Nc1ccc(Cl)cc1)c1cc(-c2ccc(F)cc2)c2sc(=O)[nH]c2n1`, the GI50 in the test on A498 renal is 0.465 µM; in the test with DU-145 prostate, 3.7 µM; with HT29 colon it was 3.02 µM; in the test with IGROV1 ovarian, 1.78 µM; in the test with RXF 393 renal it was 1.7 µM; in the test on SK-MEL-2 melanoma, 1.59 µM. The GI50 in the test on SK-MEL-5 melanoma is 0.493 µM; in the test with SN12C renal it was 1.99 µM; with SNB-19 CNS it was 2.73 µM; in the test with U251 CNS, 1.5 µM. The TGI in the test on A498 renal came out at 3.35 µM; in the test on DU-145 prostate, 28.9 µM; in the test with HT29 colon, 11.4 µM; with IGROV1 ovarian, 7.06 µM; with RXF 393 renal, 3.99 µM; with SK-MEL-2 melanoma, 3.93 µM. Moreover, the TGI in the test on SK-MEL-5 melanoma was found to be 2.13 µM; in the test on SN12C renal, 7.93 µM; in the test on SNB-19 CNS, 16.2 µM; in the test on U251 CNS, 4.71 µM.
Turning to `CC1CN1CC(O)C(O)CN1CC1C` (stereo not drawn), the GI50 in the test on A498 renal was 3.61 µM; with DU-145 prostate, 0.48 µM; in the test on HT29 colon it was 2.87 µM; in the test on IGROV1 ovarian, 4.09 µM; in the test with RXF 393 renal, 2.04 µM; in the test with SK-MEL-2 melanoma, 8.58 µM. Besides, the GI50 is 3.3 µM in the test on SK-MEL-5 melanoma, 0.692 µM in the test with SN12C renal, 6.21 µM in the test on SNB-19 CNS and 1.36 µM in the test on U251 CNS. For the same compound, the concentration for total growth inhibition (TGI) is 16.8 µM in the test on A498 renal; 9.28 µM in the test with DU-145 prostate; 19.7 µM in the test with HT29 colon; 42.2 µM in the test with IGROV1 ovarian; 8.77 µM in the test on RXF 393 renal; greater than 64.2 µM with SK-MEL-2 melanoma. Further, the TGI was 14.8 µM in the test with SK-MEL-5 melanoma, greater than 67.8 µM in the test with SN12C renal, greater than 100 µM in the test with SNB-19 CNS and greater than 64.8 µM in the test on U251 CNS.
Consider `O=C1NC(=O)c2ccc([N+](=O)[O-])c3cccc1c23`, for which the TGI in the test with A498 renal was 29.1 µM; with DU-145 prostate, greater than 100 µM; with HT29 colon it was 39.3 µM; in the test with IGROV1 ovarian, 31 µM; in the test on RXF 393 renal, 29.1 µM; with SK-MEL-2 melanoma it was 84.1 µM. Besides, the TGI in the test on SK-MEL-5 melanoma came out at 34.6 µM; in the test with SN12C renal it was 32.1 µM; in the test with SNB-19 CNS, 33.7 µM; in the test on U251 CNS, 32.3 µM.
In the case of `COc1cc(NC(=O)c2cc(O)c(CC=C(C)C)c(O)c2)cc2c1O[C@]1(C)CC[C@@H](O)C(C)(C)[C@H]1C2`, the GI50 in the test with A498 renal is 1.21 µM; with DU-145 prostate it was 7.49 µM; in the test on HT29 colon, 3.47 µM; in the test with IGROV1 ovarian, 7.51 µM; with RXF 393 renal, 0.434 µM; in the test with SK-MEL-2 melanoma it was 1.33 µM. In addition, the GI50 is 1.51 µM in the test on SK-MEL-5 melanoma, 8.83 µM in the test on SN12C renal, 3.68 µM with SNB-19 CNS and 0.846 µM in the test with U251 CNS. Also, the TGI in the test with A498 renal was 7.94 µM; with DU-145 prostate, 20.5 µM; in the test with HT29 colon, 11.9 µM; with IGROV1 ovarian it was 54.9 µM; with RXF 393 renal, 2.34 µM; in the test on SK-MEL-2 melanoma, 15.1 µM. In addition, the TGI in the test on SK-MEL-5 melanoma was determined as 3.61 µM; with SN12C renal, 36.6 µM; in the test on SNB-19 CNS it was 21 µM; in the test on U251 CNS, 14.8 µM.
Turning to `COc1ccc(C(C)c2cc3c(cc2OC)OCO3)cc1` (stereo not drawn), the TGI with A498 renal was greater than 100 µM; with DU-145 prostate, greater than 21.9 µM; in the test with HT29 colon, 0.43 µM; with IGROV1 ovarian it was 7.47 µM; in the test on RXF 393 renal, greater than 100 µM; in the test on SK-MEL-2 melanoma, 2.49 µM. Also, the TGI is 2.31 µM with SK-MEL-5 melanoma, 43.5 µM with SN12C renal, greater than 100 µM in the test with SNB-19 CNS and greater than 100 µM in the test on U251 CNS.
As for `CC(=O)OC1Oc2ccccc2-c2oc(=O)c(-c3cc4ccc(N(C)C)cc4oc3=O)cc21` (stereo not drawn), the GI50 is 6.91 µM in the test on A498 renal; 12 µM in the test on DU-145 prostate; 22 µM in the test with HT29 colon; 14.6 µM in the test with IGROV1 ovarian; 3.54 µM in the test on RXF 393 renal; 8.61 µM in the test on SK-MEL-2 melanoma. The GI50 is 3.46 µM in the test on SK-MEL-5 melanoma, 19.9 µM in the test with SN12C renal, 13.1 µM with SNB-19 CNS and 10.5 µM in the test with U251 CNS. Besides, the TGI in the test on A498 renal was 26.5 µM; in the test on DU-145 prostate, 27.7 µM; with HT29 colon, greater than 100 µM; in the test with IGROV1 ovarian it was 36.9 µM; in the test on RXF 393 renal, 15.2 µM; in the test with SK-MEL-2 melanoma it was 29.9 µM. Also, the TGI in the test with SK-MEL-5 melanoma was 15.4 µM; in the test on SN12C renal, 69.6 µM; in the test with SNB-19 CNS, 36 µM; with U251 CNS, 23.7 µM.
In the case of `CCC1(O)C(=O)OCc2c1cc1n(c2=O)Cc2cc3ccc(C=O)cc3nc2-1` (stereo not drawn), the GI50 with A498 renal is 5.39 µM; in the test on IGROV1 ovarian, 5.11 µM; with RXF 393 renal, 4.92 µM; in the test with SK-MEL-2 melanoma it was 17.6 µM; in the test with SK-MEL-5 melanoma it was 1.57 µM; in the test with SN12C renal it was 1.39 µM. The GI50 in the test with SNB-19 CNS was 1.67 µM; with U251 CNS it was 1.02 µM. The TGI was 13.5 µM and 19.5 µM in the test on A498 renal; 3.21 µM and 24.3 µM with DU-145 prostate; 16.5 µM and > 89 µM in the test with HT29 colon; 20 µM and 50.7 µM in the test on IGROV1 ovarian; 20.8 µM and 13.1 µM in the test with RXF 393 renal; 40.6 µM and 39.2 µM in the test with SK-MEL-2 melanoma. Moreover, the TGI is 6.95 µM and 6.23 µM with SK-MEL-5 melanoma; 50 µM and 7.53 µM in the test with SN12C renal; 50 µM and > 100 µM with SNB-19 CNS; 50 µM and 8.82 µM in the test with U251 CNS.
Take `COc1cc[nH]c1/C=C1\C(=O)Nc2ccccc21`: the GI50 in the test on A498 renal was 5.34 µM; in the test with DU-145 prostate, 9.37 µM; in the test on HT29 colon it was 12.3 µM; in the test with IGROV1 ovarian, 8.48 µM; with RXF 393 renal, 5.33 µM; with SK-MEL-2 melanoma, 3.55 µM. The GI50 in the test on SK-MEL-5 melanoma was 10.9 µM; in the test with SN12C renal, 7.36 µM; in the test with SNB-19 CNS, greater than 25 µM; with U251 CNS, 4.17 µM. The TGI in the test on A498 renal was greater than 25 µM; in the test on DU-145 prostate, greater than 25 µM; with HT29 colon, greater than 25 µM; in the test on IGROV1 ovarian, greater than 25 µM; in the test with RXF 393 renal, greater than 25 µM; with SK-MEL-2 melanoma, 15.7 µM. In addition, the TGI in the test with SK-MEL-5 melanoma, with SN12C renal, in the test with SNB-19 CNS and in the test with U251 CNS was greater than 25 µM in each case.
